In the supplement of paper PMC10307832:

How the values were obtained:
Assay in all cases: relative viability (nuclei count vs DMSO), 5 days (fraction); higher = more cells survive
NCI-H460 = system: NCI-H460
Summary of the method: (§1)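 A single step with final 0.05% Triton X-100, 1% formaldehyde and 1 ug/ml Hoechst fixed the cells and stained nuclei 5 days after treatment. Lung cancer cell lines in 1536-well plates had been treated by pin tool the day after seeding with one drug alone or a fixed anchor-drug dose plus five library-drug doses (not always all listed) in √10 steps, and nuclei were counted on 4× images. Relative viability is the ratio of nuclei in treated wells to nuclei in vehicle wells, taken as the median of duplicate plates.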

NCI-H661 = system: NCI-H661
Summary of the method: as §1

NCI-H1437 = system: NCI-H1437
Summary of the method: as §1

LK-2 = system: LK-2
Summary of the method: as §1

HARA = system: HARA
Summary of the method: as §1

201T = system: 201T
Summary of the method: as §1

NCI-H3122 = system: NCI-H3122
Summary of the method: as §1

COR-L 105 = system: COR-L 105
Summary of the method: as §1

BEN = system: BEN
Summary of the method: as §1

NCI-H2009 = system: NCI-H2009
Summary of the method: as §1

LOU-NH91 = system: LOU-NH91
Summary of the method: as §1

For Nc1ccn([C@@H]2O[C@H](CO)[C@@H](O)[C@@H]2O)c(=O)n1 [Cytarabine] + COc1cc2c(Oc3ccc(NC(=O)C4(C(=O)Nc5ccc(F)cc5)CC4)cc3F)ccnc2cc1OCCCN1CCOCC1 [Foretinib] (partner 0.25 µM), the relative viability (NCI-H460; first compound 0.005 µM) was 1.05, the relative viability (NCI-H460; first compound 0.01581 µM) was 0.837 and the relative viability (NCI-H460; first compound 0.05 µM) was 0.492. The relative viability (NCI-H460; first compound 0.1581 µM) was 0.0445, the relative viability (NCI-H460; first compound 0.5 µM) was 0.0401 and the relative viability (NCI-H661; first compound 0.005 µM) was 0.93. The relative viability (NCI-H661; first compound 0.01581 µM) was 0.942, the relative viability (NCI-H661; first compound 0.05 µM) was 0.884 and the relative viability (NCI-H661; first compound 0.1581 µM) was 0.68. For the same compound, the relative viability (NCI-H661; first compound 0.5 µM) was 0.519, the relative viability (NCI-H1437; first compound 0.005 µM) was 0.973 and the relative viability (NCI-H1437; first compound 0.01581 µM) was 0.922. For the same compound, the relative viability (NCI-H1437; first compound 0.05 µM) was 0.626, the relative viability (NCI-H1437; first compound 0.1581 µM) was 0.287 and the relative viability (NCI-H1437; first compound 0.5 µM) was 0.251. It also gave a relative viability (LK-2; first compound 0.005 µM) of 1.33, a relative viability (LK-2; first compound 0.01581 µM) of 0.683 and a relative viability (LK-2; first compound 0.05 µM) of 0.741. The relative viability (LK-2; first compound 0.1581 µM) was 0.309, the relative viability (LK-2; first compound 0.5 µM) was 0.282 and the relative viability (HARA; first compound 0.005 µM) was 0.753. The relative viability (HARA; first compound 0.01581 µM) was 0.496, the relative viability (HARA; first compound 0.05 µM) was 0.363 and the relative viability (HARA; first compound 0.1581 µM) was 0.107. It also gave a relative viability (HARA; first compound 0.5 µM) of 0.123, a relative viability (201T; first compound 0.005 µM) of 1.1 and a relative viability (201T; first compound 0.01581 µM) of 1.12. For the same compound, the relative viability (201T; first compound 0.05 µM) was 1.02, the relative viability (201T; first compound 0.1581 µM) was 0.762 and the relative viability (201T; first compound 0.5 µM) was 0.323. It also gave a relative viability (NCI-H3122; first compound 0.005 µM) of 0.887, a relative viability (NCI-H3122; first compound 0.01581 µM) of 0.805 and a relative viability (NCI-H3122; first compound 0.05 µM) of 0.777. For the same compound, the relative viability (NCI-H3122; first compound 0.1581 µM) was 0.509, the relative viability (NCI-H3122; first compound 0.5 µM) was 0.344 and the relative viability (COR-L 105; first compound 0.005 µM) was 0.972. It also gave a relative viability (COR-L 105; first compound 0.01581 µM) of 1.29, a relative viability (COR-L 105; first compound 0.05 µM) of 0.825 and a relative viability (COR-L 105; first compound 0.1581 µM) of 0.812. The relative viability (COR-L 105; first compound 0.5 µM) was 0.438, the relative viability (BEN; first compound 0.005 µM) was 0.768 and the relative viability (BEN; first compound 0.01581 µM) was 0.515. The relative viability (BEN; first compound 0.05 µM) was 0.301, the relative viability (BEN; first compound 0.1581 µM) was 0.278 and the relative viability (BEN; first compound 0.5 µM) was 0.222. It also gave a relative viability (NCI-H2009; first compound 0.005 µM) of 1.23, a relative viability (NCI-H2009; first compound 0.01581 µM) of 1.22 and a relative viability (NCI-H2009; first compound 0.05 µM) of 1.19. The relative viability (NCI-H2009; first compound 0.1581 µM) was 0.981, the relative viability (NCI-H2009; first compound 0.5 µM) was 0.503 and the relative viability (LOU-NH91; first compound 0.005 µM) was 0.993. For the same compound, the relative viability (LOU-NH91; first compound 0.01581 µM) was 0.926, the relative viability (LOU-NH91; first compound 0.05 µM) was 0.869 and the relative viability (LOU-NH91; first compound 0.1581 µM) was 0.585. The relative viability (LOU-NH91; first compound 0.5 µM) was 0.712.
